In patent publication US20220242870A1, “HETEROCYCLE-FUSED PYRIMIDINE DERIVATIVE AND USE THEREOF” (VORONOI Inc., priority 2019, published 2022):
pIC50: −log10 of the molar value.

Key:
human FLT3-ITD enzyme = molecular target: T1, human FLT3-ITD enzyme (Homo sapiens, UniProt P36888); test: FLT3 enzyme inhibitory ability (ADP-Glo kinase assay); format: biochemical; conditions: human FLT3-ITD enzyme 10 ng, ATP 10 μM, 25° C. 1 hour
T1 sequence (P36888 1-993): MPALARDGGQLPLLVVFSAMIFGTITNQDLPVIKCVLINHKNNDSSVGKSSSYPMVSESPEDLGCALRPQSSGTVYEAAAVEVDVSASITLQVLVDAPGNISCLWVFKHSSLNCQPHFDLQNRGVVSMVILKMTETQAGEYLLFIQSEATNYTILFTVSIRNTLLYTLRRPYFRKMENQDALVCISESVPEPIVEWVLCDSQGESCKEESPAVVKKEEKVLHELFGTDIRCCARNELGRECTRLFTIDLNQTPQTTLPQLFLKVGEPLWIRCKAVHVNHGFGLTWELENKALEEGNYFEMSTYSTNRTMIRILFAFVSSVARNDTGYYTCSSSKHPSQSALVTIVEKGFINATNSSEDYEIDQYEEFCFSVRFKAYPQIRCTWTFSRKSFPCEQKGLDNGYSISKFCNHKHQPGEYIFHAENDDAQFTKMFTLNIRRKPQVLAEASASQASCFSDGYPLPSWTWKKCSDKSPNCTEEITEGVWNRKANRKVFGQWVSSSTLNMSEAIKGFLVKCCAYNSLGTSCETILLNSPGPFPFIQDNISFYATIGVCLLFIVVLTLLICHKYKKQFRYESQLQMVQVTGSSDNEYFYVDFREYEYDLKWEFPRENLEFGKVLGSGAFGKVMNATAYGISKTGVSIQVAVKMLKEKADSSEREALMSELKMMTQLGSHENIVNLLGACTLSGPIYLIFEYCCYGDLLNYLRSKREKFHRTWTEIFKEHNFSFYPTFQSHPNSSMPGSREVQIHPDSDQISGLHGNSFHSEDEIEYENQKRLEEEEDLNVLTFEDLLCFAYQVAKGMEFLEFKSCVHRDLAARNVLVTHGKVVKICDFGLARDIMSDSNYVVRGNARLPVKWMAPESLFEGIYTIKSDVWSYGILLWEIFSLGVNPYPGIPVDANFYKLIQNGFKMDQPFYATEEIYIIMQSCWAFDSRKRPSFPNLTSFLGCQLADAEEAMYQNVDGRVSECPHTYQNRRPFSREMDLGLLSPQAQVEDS
How it was run: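 Purified human FLT3-ITD (10 ng) with 10 μM ATP and specific substrate in 40 mM Tris-HCl pH 7.4, 20 mM MgCl2, 0.5 mg/mL BSA, 50 μM DTT, 1 h at 25 °C. ADP formation read by ADP-Glo luminescence; IC50 (nM) versus solvent-treated control.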

MCF-7 cells = test: Breast cancer cell line proliferation inhibitory activity (CellTiter-Glo 2.0); format: cell-based; conditions: Homo sapiens, MCF7, 120 hours
How it was run: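 MCF-7 cells exposed to a 12-point, 3-fold dilution series (final 0.00005–10 μM) for 120 h at 37 °C. Viability read by CellTiter-Glo 2.0 luminescence, expressed as percent of vehicle-treated cells. GI50 (nM) derived from the curves.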

[1] = molecular target: T2, ABL1(T315I)-nonphosphorylated (Homo sapiens, UniProt P00519, T315I); test: scanMAX kinase assay panel; format: binding; conditions: read-out: control percentage (% control)
T2 construct: purchased DiscoverX (scanMAX panel, contract assay)
Experimental: (§1) The activities of the compounds according to the present invention to more diverse enzymes were evaluated. Specifically, it was decided that the enzyme selectivity of Example 74 selected from the compounds of Examples 1 to 129 was measured at the request of DiscoverX, and the experiment was conducted using a scanMAX™ kinase assay panel. At this time, as a drug to treat the enzyme, a solution prepared by dissolving in DMSO at a concentration of 1 μM was used, and the control percentage (% control) was determined by the method of Equation 1 below, and the results were shown in Table 2 below.
(§2) In Equation above, the positive control and negative control mean compounds showing control percentages of 0% and 100% as DMSO, respectively.

CDK7 = molecular target: T3, CDK7 (Homo sapiens, UniProt P50613); test: scanMAX kinase assay panel; format: binding; conditions: read-out: control percentage (% control)
T3 construct: purchased DiscoverX (scanMAX panel, contract assay)
Experimental: as §1, §2

EPHB4 = molecular target: T4, EPHB4 (Homo sapiens, UniProt P54760); test: scanMAX kinase assay panel; format: binding; conditions: read-out: control percentage (% control)
T4 construct: purchased DiscoverX scanMAX kinase assay panel
Experimental: as §1, §2

FLT3(N841I) = molecular target: T5, FLT3(N841I) (Homo sapiens, UniProt P36888, N841I); test: scanMAX kinase assay panel; format: binding; conditions: read-out: control percentage (% control)
T5 construct: purchased DiscoverX scanMAX kinase assay panel
Experimental: as §1, §2

LRRK2 = molecular target: T6, LRRK2 (Homo sapiens, UniProt Q5S007); test: scanMAX kinase assay panel; format: binding; conditions: read-out: control percentage (% control)
T6 construct: purchased DiscoverX scanMAX kinase assay panel
Experimental: as §1, §2

MAP3K3 = molecular target: T7, MAP3K3 (Homo sapiens, UniProt Q99759); test: scanMAX kinase assay panel; format: binding; conditions: read-out: control percentage (% control)
T7 construct: purchased DiscoverX scanMAX kinase assay panel
Experimental: as §1, §2

MAP4K2 = molecular target: T8, MAP4K2 (Homo sapiens, UniProt Q12851); test: scanMAX kinase assay panel; format: binding; conditions: read-out: control percentage (% control)
T8 construct: purchased DiscoverX scanMAX kinase assay panel
Experimental: as §1, §2

PAK3 = molecular target: T9, PAK3 (Homo sapiens, UniProt O75914); test: scanMAX kinase assay panel; format: binding; conditions: read-out: control percentage (% control)
T9 construct: purchased DiscoverX scanMAX kinase assay panel
Experimental: as §1, §2

SNARK = molecular target: T10, SNARK (Homo sapiens, UniProt Q9H093); test: scanMAX kinase assay panel; format: binding; conditions: read-out: control percentage (% control)
T10 construct: purchased DiscoverX
Experimental: as §1, §2

T4 sequence (P54760 16-987): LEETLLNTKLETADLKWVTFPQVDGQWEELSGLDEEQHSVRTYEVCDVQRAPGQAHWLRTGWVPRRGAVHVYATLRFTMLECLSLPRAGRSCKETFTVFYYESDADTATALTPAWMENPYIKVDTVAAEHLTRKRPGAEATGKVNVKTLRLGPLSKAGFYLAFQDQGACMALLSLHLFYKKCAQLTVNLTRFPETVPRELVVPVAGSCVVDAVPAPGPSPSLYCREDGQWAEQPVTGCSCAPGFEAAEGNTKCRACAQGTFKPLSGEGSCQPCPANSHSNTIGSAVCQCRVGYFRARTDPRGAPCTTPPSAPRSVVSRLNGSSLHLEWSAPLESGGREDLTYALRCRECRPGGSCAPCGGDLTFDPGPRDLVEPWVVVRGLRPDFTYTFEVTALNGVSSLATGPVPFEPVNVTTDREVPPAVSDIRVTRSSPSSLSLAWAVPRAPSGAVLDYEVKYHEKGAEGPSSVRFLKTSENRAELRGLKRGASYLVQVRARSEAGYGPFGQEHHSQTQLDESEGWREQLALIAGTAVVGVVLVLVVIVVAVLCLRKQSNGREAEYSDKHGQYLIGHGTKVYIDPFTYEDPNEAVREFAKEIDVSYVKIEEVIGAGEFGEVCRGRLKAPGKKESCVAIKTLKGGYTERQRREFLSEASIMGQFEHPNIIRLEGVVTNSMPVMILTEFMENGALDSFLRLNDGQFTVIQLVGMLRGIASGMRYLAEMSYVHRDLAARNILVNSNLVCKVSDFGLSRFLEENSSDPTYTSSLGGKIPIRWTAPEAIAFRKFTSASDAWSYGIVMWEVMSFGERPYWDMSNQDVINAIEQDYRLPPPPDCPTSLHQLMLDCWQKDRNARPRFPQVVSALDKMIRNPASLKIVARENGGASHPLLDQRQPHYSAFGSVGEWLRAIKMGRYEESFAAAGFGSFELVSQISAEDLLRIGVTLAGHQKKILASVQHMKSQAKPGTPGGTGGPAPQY
T7 sequence (Q99759 whole entry): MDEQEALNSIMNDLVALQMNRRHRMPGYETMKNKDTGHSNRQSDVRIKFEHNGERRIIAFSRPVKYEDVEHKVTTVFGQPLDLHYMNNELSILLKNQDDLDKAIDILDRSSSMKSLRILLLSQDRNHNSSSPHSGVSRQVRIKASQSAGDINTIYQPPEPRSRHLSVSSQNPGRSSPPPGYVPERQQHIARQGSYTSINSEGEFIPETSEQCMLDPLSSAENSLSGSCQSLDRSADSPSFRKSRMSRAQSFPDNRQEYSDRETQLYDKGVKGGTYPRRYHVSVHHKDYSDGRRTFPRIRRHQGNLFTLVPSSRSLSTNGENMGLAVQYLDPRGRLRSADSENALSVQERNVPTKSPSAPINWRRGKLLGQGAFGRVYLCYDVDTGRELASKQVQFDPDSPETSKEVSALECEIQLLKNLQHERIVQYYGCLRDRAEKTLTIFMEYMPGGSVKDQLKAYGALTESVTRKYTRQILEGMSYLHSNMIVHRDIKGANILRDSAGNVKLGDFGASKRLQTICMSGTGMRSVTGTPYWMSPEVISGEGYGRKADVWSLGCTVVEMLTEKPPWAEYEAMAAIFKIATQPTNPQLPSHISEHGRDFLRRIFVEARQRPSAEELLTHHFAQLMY
T3 sequence (P50613 whole entry): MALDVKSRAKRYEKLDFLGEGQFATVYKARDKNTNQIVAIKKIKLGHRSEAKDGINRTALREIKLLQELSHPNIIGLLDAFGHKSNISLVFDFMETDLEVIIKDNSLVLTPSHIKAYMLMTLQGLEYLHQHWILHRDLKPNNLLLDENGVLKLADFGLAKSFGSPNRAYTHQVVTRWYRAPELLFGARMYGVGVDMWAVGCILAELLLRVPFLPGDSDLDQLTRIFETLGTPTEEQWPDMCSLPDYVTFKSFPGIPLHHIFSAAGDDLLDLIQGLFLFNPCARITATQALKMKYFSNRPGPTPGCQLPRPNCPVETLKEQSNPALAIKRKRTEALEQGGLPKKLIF
T6 sequence (Q5S007 whole entry): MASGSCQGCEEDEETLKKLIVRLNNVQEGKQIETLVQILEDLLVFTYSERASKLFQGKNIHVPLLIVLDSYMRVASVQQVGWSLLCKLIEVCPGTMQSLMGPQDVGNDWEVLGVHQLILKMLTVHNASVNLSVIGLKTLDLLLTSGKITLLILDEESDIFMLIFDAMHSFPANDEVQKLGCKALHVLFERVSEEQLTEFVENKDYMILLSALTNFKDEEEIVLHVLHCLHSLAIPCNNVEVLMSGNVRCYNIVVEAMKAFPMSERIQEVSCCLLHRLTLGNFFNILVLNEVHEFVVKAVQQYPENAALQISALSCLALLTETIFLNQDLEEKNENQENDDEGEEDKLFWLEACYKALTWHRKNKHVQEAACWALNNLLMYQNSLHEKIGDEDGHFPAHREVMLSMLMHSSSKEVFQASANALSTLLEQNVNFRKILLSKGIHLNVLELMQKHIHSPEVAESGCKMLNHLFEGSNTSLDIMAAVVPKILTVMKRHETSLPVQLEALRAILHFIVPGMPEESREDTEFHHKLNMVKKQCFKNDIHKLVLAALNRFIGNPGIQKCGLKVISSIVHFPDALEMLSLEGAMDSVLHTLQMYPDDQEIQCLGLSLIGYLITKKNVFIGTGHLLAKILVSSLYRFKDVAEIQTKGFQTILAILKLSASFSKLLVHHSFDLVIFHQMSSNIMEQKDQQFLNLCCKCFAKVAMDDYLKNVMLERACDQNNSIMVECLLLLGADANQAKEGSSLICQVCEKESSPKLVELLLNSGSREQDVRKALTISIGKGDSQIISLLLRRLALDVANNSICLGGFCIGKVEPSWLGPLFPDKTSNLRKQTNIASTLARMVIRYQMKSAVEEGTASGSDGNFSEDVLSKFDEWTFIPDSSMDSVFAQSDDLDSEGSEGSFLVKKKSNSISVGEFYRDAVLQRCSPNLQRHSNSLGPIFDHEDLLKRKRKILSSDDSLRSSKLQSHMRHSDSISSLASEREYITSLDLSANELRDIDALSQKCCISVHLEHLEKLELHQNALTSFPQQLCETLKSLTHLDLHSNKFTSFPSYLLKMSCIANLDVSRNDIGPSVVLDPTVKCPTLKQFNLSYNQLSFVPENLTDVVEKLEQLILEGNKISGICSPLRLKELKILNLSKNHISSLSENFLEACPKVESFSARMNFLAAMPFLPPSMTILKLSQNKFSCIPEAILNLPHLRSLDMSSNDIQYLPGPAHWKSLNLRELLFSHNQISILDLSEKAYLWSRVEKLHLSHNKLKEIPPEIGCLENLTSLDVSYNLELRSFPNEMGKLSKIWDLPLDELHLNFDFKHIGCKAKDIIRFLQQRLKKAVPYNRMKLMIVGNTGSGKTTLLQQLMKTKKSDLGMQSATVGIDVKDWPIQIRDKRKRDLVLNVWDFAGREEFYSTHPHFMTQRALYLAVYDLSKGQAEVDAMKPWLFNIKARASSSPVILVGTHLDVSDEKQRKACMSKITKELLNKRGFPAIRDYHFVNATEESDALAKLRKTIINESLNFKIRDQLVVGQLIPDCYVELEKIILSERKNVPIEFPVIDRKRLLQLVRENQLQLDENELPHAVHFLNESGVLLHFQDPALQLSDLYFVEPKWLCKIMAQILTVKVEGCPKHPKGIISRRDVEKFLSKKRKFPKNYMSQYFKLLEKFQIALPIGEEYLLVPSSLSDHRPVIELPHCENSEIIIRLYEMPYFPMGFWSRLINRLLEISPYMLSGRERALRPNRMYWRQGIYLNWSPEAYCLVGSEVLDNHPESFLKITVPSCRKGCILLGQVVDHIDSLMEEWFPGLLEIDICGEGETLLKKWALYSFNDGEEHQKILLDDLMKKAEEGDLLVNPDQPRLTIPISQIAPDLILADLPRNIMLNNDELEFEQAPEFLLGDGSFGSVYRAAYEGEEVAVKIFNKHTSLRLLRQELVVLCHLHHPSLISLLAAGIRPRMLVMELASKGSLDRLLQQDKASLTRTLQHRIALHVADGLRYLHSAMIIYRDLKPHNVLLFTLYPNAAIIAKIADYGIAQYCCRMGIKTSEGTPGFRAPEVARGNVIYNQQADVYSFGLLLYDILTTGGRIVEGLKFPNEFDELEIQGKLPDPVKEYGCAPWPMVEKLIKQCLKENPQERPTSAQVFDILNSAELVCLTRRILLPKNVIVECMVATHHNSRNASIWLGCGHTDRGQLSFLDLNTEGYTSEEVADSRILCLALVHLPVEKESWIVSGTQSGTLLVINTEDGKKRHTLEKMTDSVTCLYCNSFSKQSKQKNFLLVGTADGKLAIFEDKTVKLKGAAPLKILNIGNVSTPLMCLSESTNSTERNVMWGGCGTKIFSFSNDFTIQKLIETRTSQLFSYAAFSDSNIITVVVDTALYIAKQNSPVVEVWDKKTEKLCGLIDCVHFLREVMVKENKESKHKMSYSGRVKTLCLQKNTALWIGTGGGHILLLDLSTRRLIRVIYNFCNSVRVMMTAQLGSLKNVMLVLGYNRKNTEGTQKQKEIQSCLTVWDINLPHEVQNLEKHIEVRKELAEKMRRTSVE
T10 sequence (Q9H093 whole entry): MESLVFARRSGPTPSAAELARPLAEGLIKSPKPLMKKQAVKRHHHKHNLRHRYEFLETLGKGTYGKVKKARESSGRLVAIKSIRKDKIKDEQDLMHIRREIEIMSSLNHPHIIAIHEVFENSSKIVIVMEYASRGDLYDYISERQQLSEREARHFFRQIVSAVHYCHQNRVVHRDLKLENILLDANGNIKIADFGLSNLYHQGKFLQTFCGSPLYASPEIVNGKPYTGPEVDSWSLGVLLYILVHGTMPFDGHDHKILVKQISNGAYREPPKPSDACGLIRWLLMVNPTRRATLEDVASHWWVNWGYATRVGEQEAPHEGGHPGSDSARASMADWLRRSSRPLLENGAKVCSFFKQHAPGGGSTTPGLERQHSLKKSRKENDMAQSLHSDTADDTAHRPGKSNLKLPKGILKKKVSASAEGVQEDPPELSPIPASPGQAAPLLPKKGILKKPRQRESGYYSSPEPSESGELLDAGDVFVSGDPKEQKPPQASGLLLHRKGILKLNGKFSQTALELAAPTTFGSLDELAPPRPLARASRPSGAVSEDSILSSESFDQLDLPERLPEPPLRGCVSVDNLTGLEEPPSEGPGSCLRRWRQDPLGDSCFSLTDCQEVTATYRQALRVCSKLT

With `CN1CCN(c2ccc(Nc3nc(N4OCC[C@H]4c4ccccc4)c4cc[nH]c4n3)cc2)CC1` [Example 74, (S)-N-(4-(4-methylpiperazin-1-yl)phenyl)-4-(3-phenylisoxazolidin-2-yl)-7H-pyrrolo[2,3-d]pyrimidin-2-amine] as the molecule, how does the pIC50 (human FLT3-ITD enzyme) read?
Its pIC50 is under 6.30.

And the GI50 (MCF-7 cells)?
The GI50 was over 500 nM.

What about the remaining binding at 1 µM [1] of the same molecule?
Its remaining binding at 1 µM is 29%.

And the remaining binding at 1 µM (CDK7)?
Its remaining binding at 1 µM is 21%.

And the remaining binding at 1 µM (EPHB4)?
Its remaining binding at 1 µM is 31%.

And the remaining binding at 1 µM (FLT3(N841I))?
Its remaining binding at 1 µM is 0.3%.

What about the remaining binding at 1 µM (LRRK2) of the same molecule?
The remaining binding at 1 µM was 28%.

What about the remaining binding at 1 µM (MAP3K3) of the same molecule?
Its remaining binding at 1 µM is 25%.

And the remaining binding at 1 µM (MAP4K2)?
The remaining binding at 1 µM was 12%.

What about the remaining binding at 1 µM (PAK3) of the same molecule?
The remaining binding at 1 µM was 23%.

And the remaining binding at 1 µM (SNARK)?
The remaining binding at 1 µM was 3.7%.
